Results on 24 molecules are retold here after patent US10435399B2, “HDAC6 inhibitory heterocyclic compound” (TAKEDA PHARMACEUTICAL COMPANY LIMITED, priority 2017, dated 2019).

For this test, the target named is T1, HDAC6 enzyme (Homo sapiens, UniProt Q9UBN7).
T1 construct: transducing full length HDAC6 gene into Sf-9 insect cells; GST; purchased SignalChem; host or cells: Sf-9 insect cells
T1 sequence (Q9UBN7 1-1215): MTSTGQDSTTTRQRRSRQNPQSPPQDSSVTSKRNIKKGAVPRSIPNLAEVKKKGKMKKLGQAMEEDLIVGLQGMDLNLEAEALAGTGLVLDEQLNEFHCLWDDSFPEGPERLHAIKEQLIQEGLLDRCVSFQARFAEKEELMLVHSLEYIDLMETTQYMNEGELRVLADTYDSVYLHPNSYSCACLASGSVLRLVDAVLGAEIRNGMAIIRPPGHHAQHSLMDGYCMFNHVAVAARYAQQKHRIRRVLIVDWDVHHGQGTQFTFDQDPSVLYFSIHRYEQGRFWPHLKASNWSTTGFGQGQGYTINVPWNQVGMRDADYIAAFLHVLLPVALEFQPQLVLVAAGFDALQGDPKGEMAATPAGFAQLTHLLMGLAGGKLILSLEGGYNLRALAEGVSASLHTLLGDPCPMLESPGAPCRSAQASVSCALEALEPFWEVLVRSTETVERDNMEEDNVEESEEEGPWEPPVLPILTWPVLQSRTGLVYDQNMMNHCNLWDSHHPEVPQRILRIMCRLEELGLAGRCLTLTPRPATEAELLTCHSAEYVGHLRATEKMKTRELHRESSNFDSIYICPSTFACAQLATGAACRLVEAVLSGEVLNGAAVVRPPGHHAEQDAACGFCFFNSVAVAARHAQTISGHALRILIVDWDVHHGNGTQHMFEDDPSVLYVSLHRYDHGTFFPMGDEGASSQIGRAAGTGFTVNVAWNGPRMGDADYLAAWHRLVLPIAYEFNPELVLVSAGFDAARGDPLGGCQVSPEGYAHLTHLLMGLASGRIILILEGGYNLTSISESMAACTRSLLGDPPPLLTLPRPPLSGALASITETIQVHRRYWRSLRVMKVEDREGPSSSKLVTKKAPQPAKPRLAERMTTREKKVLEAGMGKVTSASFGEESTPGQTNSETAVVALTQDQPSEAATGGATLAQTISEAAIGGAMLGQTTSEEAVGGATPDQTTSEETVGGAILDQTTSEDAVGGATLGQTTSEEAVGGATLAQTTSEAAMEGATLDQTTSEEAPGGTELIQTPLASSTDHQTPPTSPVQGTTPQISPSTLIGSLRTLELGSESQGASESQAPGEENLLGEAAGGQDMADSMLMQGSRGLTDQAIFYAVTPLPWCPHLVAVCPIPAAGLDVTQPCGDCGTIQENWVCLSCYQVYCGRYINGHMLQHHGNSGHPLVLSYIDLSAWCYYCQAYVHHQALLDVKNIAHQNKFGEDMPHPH
Description: HDAC6 enzyme inhibitory activity (HDAC-Glo I/II Assay kit). The class given is biochemical. The following applies: 10 μM; wells without enzyme = 100% inhibition; read-out: HDAC6 inhibitory rate (%) (10 μM). The gist of the method:
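Luminescence read-out after 20 min reaction with HDAC-Glo substrate-developer, following 60 min room-temperature preincubation of compound with Sf-9-expressed, GST-purified full-length enzyme. Inhibition is relative to no-enzyme wells set as 100%.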

For `C[C@@H](c1ccccc1)N1Cc2ncc(-c3nnc(C(F)F)o3)cc2C1=O` [Example 475, 3-(5-(difluoro-methyl)-1,3,4-oxadiazol-2-yl)-6-((1S)-1-phenylethyl)-6,7-dihydro-5H-pyrrolo [3,4-b]pyridin-5-one], the inhibition at 10 µM worked out at 100%.
Under `C[C@H](c1ccccc1)N1Cc2ncc(-c3nnc(C(F)F)o3)cc2C1=O` [Example 476, 3-(5-(difluoro-methyl)-1,3,4-oxadiazol-2-yl)-6-((1R)-1-phenylethyl)-6,7-dihydro-5H-pyrrolo [3,4-b]pyridin-5-one] stands 100%.
Under `COc1ccc(N2Cc3ccc(-c4nnc(C(F)F)o4)cc3C2=O)c(Br)c1` [Example 477, 2-(2-bromo-4-methoxy-phenyl)-6-(5-(difluoro-methyl)-1,3,4-oxadiazol-2-yl) isoindolin-1-one] stands 95%; under `O=C1c2cc(-c3nnc(C(F)F)o3)cnc2CN1Cc1ccccc1OCC(F)F` [Example 478, 6-(2-(2,2-difluoroethoxy)benzyl)-3-(5-(difluoro-methyl)-1,3,4-oxadiazol-2-yl)-6,7-dihydro-5H-pyrrolo [3,4-b]pyridin-5-one], 100%.
Consider `O=C1c2cc(-c3nnc(C(F)F)o3)cnc2CN1Cc1cccc(-c2cnn(C(F)F)c2)c1` [Example 479, 3-(5-(difluoro-methyl)-1,3,4-oxadiazol-2-yl)-6-(3-(1-(difluoro-methyl)-1H-pyrazol-4-yl)benzyl)-6,7-dihydro-5H-pyrrolo[3,4-b] pyridin-5-one], for which the inhibition at 10 µM worked out at 100%.
Under `Cn1cc(C2CCC(F)(F)CC2)c(N2Cc3ccc(-c4nnc(C(F)F)o4)cc3C2=O)n1` [Example 480, 2-(4-(4,4-difluorocyclo-hexyl)-1-methyl-1H-pyrazol-3-yl)-6-(5-(difluoro-methyl)-1,3,4-oxadiazol-2-yl) isoindolin-1-one] stands 101%.
Consider `Cn1cc(-c2cccc3ccnn23)c(N2Cc3ccc(-c4nnc(C(F)F)o4)cc3C2=O)n1` [Example 481, 6-(5-(difluoro-methyl)-1,3,4-oxadiazol-2-yl)-2-(1-methyl-4-(pyrazolo[1,5-a]pyridin-7-yl)-1H-pyrazol-3-yl)isoindolin-1-one], for which the inhibition at 10 µM amounted to 98%.
Take `O=C1c2cc(-c3nnc(C(F)F)o3)ccc2CN1c1ccc(F)cc1-n1cc(Br)cn1` [Example 482, 2-(2-(4-bromo-1H-pyrazol-1-yl)-4-fluoro-phenyl)-6-(5-(difluoro-methyl)-1,3,4-oxadiazol-2-yl) isoindolin-1-one]: the inhibition at 10 µM worked out at 100%.
Under `O=C1c2cc(-c3nnc(C(F)F)o3)ccc2CN1c1ccc(OC(F)(F)F)cc1Br` [Example 483, 2-(2-bromo-4-(trifluoro-methoxy)phenyl)-6-(5-(difluoro-methyl)-1,3,4-oxadiazol-2-yl) isoindolin-1-one] stands 91%.
For `COc1ccc(N2Cc3ccc(-c4nnc(C(F)F)o4)cc3C2=O)c(-c2ccccc2)c1` [Example 484, 6-(5-(difluoro-methyl)-1,3,4-oxadiazol-2-yl)-2-(5-methoxy-biphenyl-2-yl) isoindolin-1-one], the inhibition at 10 µM is 100%.
Under `O=C1c2cc(-c3nnc(C(F)F)o3)ccc2CN1c1ccc(OC(F)(F)F)cc1-c1ccccc1` [Example 485, 6-(5-(difluoro-methyl)-1,3,4-oxadiazol-2-yl)-2-(5-(trifluoro-methoxy)biphenyl-2-yl) isoindolin-1-one] stands 100%; under `O=C1c2cc(-c3nnc(C(F)F)o3)ccc2CN1c1ccc(F)cc1-n1cc(C2CC2)cn1` [Example 486, 2-(2-(4-cyclo-propyl-1H-pyrazol-1-yl)-4-fluorophenyl)-6-(5-(difluoro-methyl)-1,3,4-oxadiazol-2-yl) isoindolin-1-one], 100%; under `O=C1c2cc(-c3nnc(C(F)F)o3)ccc2CN1c1ccccc1Cc1ccccc1` [Example 487, 2-(2-benzyl-phenyl)-6-(5-(difluoro-methyl)-1,3,4-oxadiazol-2-yl) isoindolin-1-one], 99%.
For the molecule `CCc1cnn(-c2cc(F)ccc2N2Cc3ccc(-c4nnc(C(F)F)o4)cc3C2=O)c1` [Example 488, 6-(5-(difluoro-methyl)-1,3,4-oxadiazol-2-yl)-2-(2-(4-ethyl-1H-pyrazol-1-yl)-4-fluoro-phenyl) isoindolin-1-one], the inhibition at 10 µM amounted to 100%.
Under `O=C1c2cc(-c3nnc(C(F)F)o3)ccc2CN1N1CCCCC1c1ccccc1` (stereo not drawn) [Example 490, 6-(5-(difluoro-methyl)-1,3,4-oxadiazol-2-yl)-2-(2-phenyl-piperidin-1-yl) isoindolin-1-one] stands 98%; under `O=C1c2cc(-c3nnc(C(F)F)o3)ccc2CN1N1CCCC1c1ccccc1` (stereo not drawn) [Example 491, 6-(5-(difluoro-methyl)-1,3,4-oxadiazol-2-yl)-2-(2-phenyl-pyrrolidin-1-yl) isoindolin-1-one], 99%.
`Cn1cc(N2Cc3ccc(-c4nnc(C(F)F)o4)cc3C2=O)c(Br)n1` [Example 492, 2-(3-bromo-1-methyl-1H-pyrazol-4-yl)-6-(5-(difluoro-methyl)-1,3,4-oxadiazol-2-yl) isoindolin-1-one]: the inhibition at 10 µM was 91%.
Under `Cn1cc(N2Cc3ccc(-c4nnc(C(F)F)o4)cc3C2=O)c(-c2ccccc2)n1` [Example 493, 6-(5-(difluoro-methyl)-1,3,4-oxadiazol-2-yl)-2-(1-methyl-3-phenyl-1H-pyrazol-4-yl) isoindolin-1-one] stands 99%; under `COC(=O)N1CC[C@@H](N2Cc3ncc(-c4nnc(C(F)F)o4)cc3C2=O)[C@H](c2ccc(F)cc2)C1` [Example 494, methyl (3R,4R)-4-(3-(5-(difluoro-methyl)-1,3,4-oxadiazol-2-yl)-5-oxo-5,7-dihydro-6H-pyrrolo[3,4-b]pyridin-6-yl)-3-(4-fluoro-phenyl) piperidine-1-carboxylate], 100%; under `N[C@@H]1CCCC(F)(F)[C@H]1N1Cc2ncc(-c3nnc(C(F)F)o3)cc2C1=O` [Example 495, 6-((1S,6R)-6-amino-2,2-difluorocyclo-hexyl)-3-(5-(difluoro-methyl)-1,3,4-oxadiazol-2-yl)-6,7-dihydro-5H-pyrrolo [3,4-b] pyridin-5-one], 89%.
As for `CC(C)(C)OC(=O)N[C@@H]1CCCC(F)(F)[C@H]1N1Cc2ncc(-c3nnc(C(F)F)o3)cc2C1=O` [Example 496, tert-butyl ((1R,2S)-2-(3-(5-(difluoro-methyl)-1,3,4-oxadiazol-2-yl)-5-oxo-5,7-dihydro-6H-pyrrolo[3,4-b]pyridin-6-yl)-3,3-difluoro-cyclohexyl) carbamate], the inhibition at 10 µM was found to be 100%.
Under `O=C1c2cc(-c3nnc(C(F)F)o3)cnc2CN1[C@H]1[C@H](NC(=O)C(F)(F)C(F)(F)F)CCCC1(F)F` [Example 497, N-((1R,2S)-2-(3-(5-(difluoro-methyl)-1,3,4-oxadiazol-2-yl)-5-oxo-5,7-dihydro-6H-pyrrolo[3,4-b]pyridin-6-yl)-3,3-difluoro-cyclohexyl)-2,2,3,3,3-pentafluoro-propanamide] stands 101%.
Under `O=C(C1CC1)N1CC[C@@H](N2Cc3ncc(-c4nnc(C(F)F)o4)cc3C2=O)[C@H](c2ccc(F)cc2)C1` [Example 498, 6-((3R,4R)-1-(cyclopropyl-carbonyl)-3-(4-fluorophenyl)piperidin-4-yl)-3-(5-(difluoro-methyl)-1,3,4-oxadiazol-2-yl)-6,7-dihydro-5H-pyrrolo [3,4-b]pyridin-5-one] stands 100%; under `COC(=O)N1CC[C@@H](N2Cc3ncc(-c4nnc(C(F)F)o4)cc3C2=O)[C@H](c2ccc(F)c(F)c2)C1` [Example 499, methyl (3R,4R)-4-(3-(5-(difluoro-methyl)-1,3,4-oxadiazol-2-yl)-5-oxo-5,7-dihydro-6H-pyrrolo[3,4-b]pyridin-6-yl)-3-(3,4-difluoro-phenyl) piperidine-1-carboxylate], 99%.
